Results from US10150771B2, “Triazolopyrazinones as PDE1 inhibitors” (H. Lundbeck A/S, priority 2014, dated 2018).

Key:
Type in all cases: biochemical
PDE1A = PDE1A (Homo sapiens, UniProt P54750); assay: PDE1 inhibition assay (SPA), PDE1A; conditions: concentration required to reach 50% inhibition of the enzyme; 15 nM tritium labelled cAMP; read-out: PDE1A inhibition (nM or %): IC50
Procedure, shortened: (§1)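 A scintillation proximity assay used enzyme sufficient for 20–25% substrate conversion and 15 nM tritiated cAMP in 50 mM HEPES pH 7.6, 10 mM MgCl2, 0.02% Tween20 and 0.1 mg/ml BSA, run for 1 h at room temperature. Reactions were stopped with yttrium silicate SPA beads. IC50 values were derived from activity relative to uninhibited control.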

PDE1B = PDE1B (Homo sapiens, UniProt Q01064); assay: PDE1 inhibition assay (SPA), PDE1B; conditions: concentration required to reach 50% inhibition of the enzyme; 15 nM tritium labelled cAMP; read-out: PDE1B inhibition (nM or %): IC50
PDE1B, sequence (Q01064 whole entry): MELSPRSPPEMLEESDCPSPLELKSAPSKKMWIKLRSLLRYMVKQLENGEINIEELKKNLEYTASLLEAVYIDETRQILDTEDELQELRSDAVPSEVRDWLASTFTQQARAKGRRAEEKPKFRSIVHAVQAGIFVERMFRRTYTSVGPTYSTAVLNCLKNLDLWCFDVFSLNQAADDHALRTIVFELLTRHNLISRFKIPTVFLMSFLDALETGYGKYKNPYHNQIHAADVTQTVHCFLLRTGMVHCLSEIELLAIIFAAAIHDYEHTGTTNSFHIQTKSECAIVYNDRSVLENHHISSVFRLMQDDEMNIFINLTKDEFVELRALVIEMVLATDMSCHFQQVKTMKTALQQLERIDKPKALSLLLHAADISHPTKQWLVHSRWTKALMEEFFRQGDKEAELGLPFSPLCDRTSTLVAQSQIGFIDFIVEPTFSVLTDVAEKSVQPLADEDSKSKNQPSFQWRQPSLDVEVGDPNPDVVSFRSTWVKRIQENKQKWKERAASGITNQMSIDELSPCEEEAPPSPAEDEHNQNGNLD
Procedure, shortened: as §1

PDE1C = PDE1C (Homo sapiens, UniProt Q14123); assay: PDE1 inhibition assay (SPA), PDE1C; conditions: concentration required to reach 50% inhibition of the enzyme; 15 nM tritium labelled cAMP; read-out: PDE1C inhibition (nM or %): IC50
PDE1C, sequence (Q14123 whole entry): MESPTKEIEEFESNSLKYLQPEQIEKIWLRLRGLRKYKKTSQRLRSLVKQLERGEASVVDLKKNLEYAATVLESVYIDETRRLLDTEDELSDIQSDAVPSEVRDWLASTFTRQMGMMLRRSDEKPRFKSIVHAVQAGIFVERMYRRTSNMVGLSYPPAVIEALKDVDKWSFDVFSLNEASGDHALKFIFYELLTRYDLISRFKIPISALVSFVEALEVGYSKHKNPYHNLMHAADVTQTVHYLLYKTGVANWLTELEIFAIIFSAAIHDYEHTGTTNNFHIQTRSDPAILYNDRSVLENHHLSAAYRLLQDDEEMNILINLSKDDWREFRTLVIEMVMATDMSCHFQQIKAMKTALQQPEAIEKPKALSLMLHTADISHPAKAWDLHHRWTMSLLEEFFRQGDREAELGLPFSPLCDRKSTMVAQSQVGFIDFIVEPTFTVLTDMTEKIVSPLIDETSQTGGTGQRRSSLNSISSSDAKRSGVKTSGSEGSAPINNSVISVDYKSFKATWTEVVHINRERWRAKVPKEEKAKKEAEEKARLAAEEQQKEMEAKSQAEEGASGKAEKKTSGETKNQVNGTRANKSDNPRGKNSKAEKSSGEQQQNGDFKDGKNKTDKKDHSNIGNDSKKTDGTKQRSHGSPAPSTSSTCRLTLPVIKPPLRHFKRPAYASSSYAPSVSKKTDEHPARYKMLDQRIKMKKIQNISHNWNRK
Procedure, shortened: as §1

PDE1A, sequence (P54750 whole entry): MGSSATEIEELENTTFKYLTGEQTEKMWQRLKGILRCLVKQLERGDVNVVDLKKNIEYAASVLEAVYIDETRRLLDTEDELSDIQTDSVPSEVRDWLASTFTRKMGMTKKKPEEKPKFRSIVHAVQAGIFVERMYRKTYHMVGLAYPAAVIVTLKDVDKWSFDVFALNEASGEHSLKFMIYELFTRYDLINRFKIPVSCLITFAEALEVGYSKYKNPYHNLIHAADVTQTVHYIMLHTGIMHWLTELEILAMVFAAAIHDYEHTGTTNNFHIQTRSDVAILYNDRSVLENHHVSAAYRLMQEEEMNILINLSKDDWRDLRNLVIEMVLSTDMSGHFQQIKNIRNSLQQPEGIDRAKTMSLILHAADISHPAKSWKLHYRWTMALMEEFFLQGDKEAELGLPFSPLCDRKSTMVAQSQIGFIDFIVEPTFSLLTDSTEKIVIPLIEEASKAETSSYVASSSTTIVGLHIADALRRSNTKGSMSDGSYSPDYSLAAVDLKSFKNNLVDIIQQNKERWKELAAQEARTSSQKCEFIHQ

Row | Compound | IC50 (PDE1A) [nM] | IC50 (PDE1B) [nM] | IC50 (PDE1C) [nM]
1 | CCCc1nnc2c(=O)n(Cc3cccc(F)c3)ccn12 [7-(3-Fluorobenzyl)-3-propyl-[1,2,4]triazolo[4,3-a]pyrazin-8(7H)-one] | 1100 | 1200 | 190
2 | O=c1c2nnc(C3CCOCC3)n2cc(Br)n1CC1CCCCCC1 [6-bromo-7-(cycloheptylmethyl)-3-(tetrahydro-2H-pyran-4-yl)-[1,2,4]triazolo[4,3-a]pyrazin-8(7H)-one] | 13 | 4 | 3
3 | CCCc1nnc2c(=O)n(Cc3cccc(F)c3)cc([C@H]3CCOC3)n12 (single isomer, unassigned) | 1610 | 2300 | 260
4 | CCCc1nnc2c(=O)n(Cc3ccc(Cl)cc3)ccn12 [7-(4-Chlorobenzyl)-3-propyl-[1,2,4]triazolo[4,3-a]pyrazin-8(7H)-one] | 620 | 83 | 170
